Drawing on patent US11260084B2 (priority 2017, dated 2022), this text covers effect on mortality and reduction of mortality for two compounds.

Test [1] deals with Clostridium perfringens, Eimeria acervulina, and Eimeria maxima, and Eimeria tenella. The class given is in vivo, Ross 708 broilers. Particulars: at 21-days and 42-days of age; versus control.
In test [2] the test system is Eimeria acervulina, Eimeria maxima and Eimeria tenella. The test can be described thus: Example 8 broiler study under severe coccidiosis challenge conditions. Particulars: 28-day mortality; compared to the challenged control. The format is in vivo, Ross 708 broiler chicks. The text has this:
EXAMPLE 8 of the present disclosure describes a study to evaluate the efficacy of a combination of xylanase (10 U/g feed), B. licheniformis strain PWD-1 (1×10^5 CFU/g feed), and B. amyloliquefaciens strain Ba-BPD1 (5×10^5 CFU/g feed) referred to as “Xyl+B+Y”, to minimize the severity of gut lesions and improve overall livability of broiler chickens fed standard corn-soy diets and reared under severe coccidiosis challenge conditions. In the study chicks were twice challenged with a live vaccine containing the live oocysts of highly-immunogenic, coccidiostat-sensitive strains of Eimeria acervulina, Eimeria maxima and Eimeria tenella by oral gavage and the Xyl+B+Y combination was compared to salinomycin sodium which is referred to as “Coccidiostat” in FIG. 13. […]
MATERIALS AND METHODS: Four hundred male Ross 708 broiler chicks were randomly assigned to 1 of 4 dietary treatments, with 7 replicate battery cages per treatment (except Treatment 1, the unchallenged positive control, which contained 4 replicate cages), and 16 birds per cage. […] The key parameters evaluated were upper-tract intestinal lesion scores, middle-tract intestinal lesion scores, mortality/livability, and feed conversion ratio (FCR).

As for bacitracin methylene disalicylate [AGP], in test [1], the effect on mortality entry is “did not significantly improve”.

On to `CC[C@@H](C(=O)[C@@H](C)[C@@H](O)[C@H](C)[C@@H]1O[C@@H]([C@@H](CC)C(=O)O)CC[C@@H]1C)[C@H]1O[C@]2(C=C[C@@H](O)[C@]3(CC[C@@](C)([C@H]4CC[C@](O)(CC)[C@H](C)O4)O3)O2)[C@H](C)C[C@@H]1C` [Coccidiostat, salinomycin sodium], for which, in test [2], the reduction of mortality turned out to be 25%.
